Experiments:
Experiment in all cases: relative viability (nuclei count vs DMSO), 5 days (fraction); higher = more cells survive
[1] = compound: CC1(C)CCC(CN2CCN(c3ccc(C(=O)NS(=O)(=O)c4ccc(NCC5CCOCC5)c([N+](=O)[O-])c4)c(Oc4cnc5[nH]ccc5c4)c3)CC2)=C(c2ccc(Cl)cc2)C1 [Venetoclax] + CC(=O)c1c(C)c2cnc(Nc3ccc(N4CCNCC4)cn3)nc2n(C2CCCC2)c1=O [Palbociclib] (partner 0.5 µM)
Method in brief: (§1)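 Lung cancer cell lines in 1536-well plates got either a single drug or a fixed anchor-drug dose together with five library-drug doses (not always all listed) in √10 steps, by pin tool, on the day after seeding. Nuclei were counted after 5 days, and relative viability is the treated-to-vehicle ratio of nuclei counts. Values are medians of duplicate plates.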

[2] = compound: CC1(C)CCC(CN2CCN(c3ccc(C(=O)NS(=O)(=O)c4ccc(NCC5CCOCC5)c([N+](=O)[O-])c4)c(Oc4cnc5[nH]ccc5c4)c3)CC2)=C(c2ccc(Cl)cc2)C1 [Venetoclax] + NC(=O)Nc1cc(-c2cccc(F)c2)sc1C(=O)N[C@H]1CCCNC1 [AZD7762] (partner 0.2 µM)
Method in brief: as §1

[3] = compound: Cn1cnc2c(F)c(Nc3ccc(Br)cc3Cl)c(C(=O)NOCCO)cc21 [Selumetinib] + Nc1ncn([C@H]2C[C@H](O)[C@@H](CO)O2)c(=O)n1 [Decitabine] (partner 2 µM)
Method in brief: as §1

[4] = compound: Cn1cnc2c(F)c(Nc3ccc(Br)cc3Cl)c(C(=O)NOCCO)cc21 [Selumetinib] + C[C@@H](Oc1cc(-c2cnn(C3CCNCC3)c2)cnc1N)c1c(Cl)ccc(F)c1Cl [Crizotinib] (partner 1 µM)
Method in brief: as §1

| Cell Line | relative viability ([1]; first compound 0.01 µM) | relative viability ([1]; first compound 0.03162 µM) | relative viability ([1]; first compound 0.1 µM) | relative viability ([1]; first compound 0.3162 µM) | relative viability ([1]; first compound 1 µM) | relative viability ([2]; first compound 0.01 µM) | relative viability ([2]; first compound 0.03162 µM) | relative viability ([2]; first compound 0.1 µM) | relative viability ([2]; first compound 0.3162 µM) | relative viability ([2]; first compound 1 µM) | relative viability ([3]; first compound 0.02 µM) | relative viability ([3]; first compound 0.06325 µM) | relative viability ([3]; first compound 0.2 µM) | relative viability ([3]; first compound 0.6325 µM) | relative viability ([4]; first compound 0.02 µM) | relative viability ([4]; first compound 0.06325 µM) | relative viability ([4]; first compound 0.2 µM) | relative viability ([4]; first compound 0.6325 µM) |
| --- | --- | --- | --- | --- | --- | --- | --- | --- | --- | --- | --- | --- | --- | --- | --- | --- | --- | --- |
| NCI-H522 | 0.929 | 0.95 | 0.925 | 0.816 | 0.968 | 1.01 | 0.769 | 0.85 | 0.923 | 0.689 | 0.837 | 0.585 | 0.692 | 0.7 | – | – | – | – |
| HCC-366 | 0.391 | 0.359 | 0.314 | 0.37 | 0.326 | 0.332 | 0.202 | 0.214 | 0.25 | 0.141 | 0.353 | 0.36 | 0.315 | 0.309 | 0.492 | 0.462 | 0.308 | 0.238 |
| A-427 | 0.469 | 0.595 | 0.498 | 0.507 | 0.516 | 0.752 | 0.762 | 0.674 | 0.784 | 0.709 | 0.537 | 0.575 | 0.53 | 0.55 | 0.88 | 0.768 | 0.73 | 0.701 |
| NCI-H2347 | 0.41 | 0.388 | 0.322 | 0.483 | 0.414 | 0.729 | 0.894 | 0.663 | 0.723 | 0.76 | 0.571 | 0.585 | 0.49 | 0.34 | 0.771 | 0.645 | 0.42 | 0.511 |
| NCI-H1792 | 0.657 | 0.678 | 0.65 | 0.699 | 0.583 | 0.58 | 0.698 | 0.703 | 0.608 | 0.565 | 0.635 | 0.486 | 0.52 | 0.425 | 0.986 | 0.86 | 0.816 | 0.682 |
| LCLC-97TM1 | 0.231 | 0.217 | 0.202 | 0.208 | 0.212 | 0.323 | 0.26 | 0.263 | 0.266 | 0.25 | 0.258 | 0.217 | 0.296 | 0.197 | 0.527 | 0.496 | 0.467 | 0.504 |
| RERF-LC-KJ | 1.05 | 1.08 | 0.988 | 1.03 | 1.03 | 0.801 | 1.09 | 1.07 | 1.03 | 0.945 | 0.682 | 0.608 | 0.639 | 0.737 | 0.844 | 0.842 | 0.788 | 0.77 |
| NCI-H1993 | 0.643 | 0.652 | 0.717 | 0.616 | 0.541 | 0.635 | 0.787 | 0.651 | 0.816 | 0.763 | 0.571 | 0.615 | 0.549 | 0.604 | 0.781 | 0.766 | 0.749 | 0.748 |
| NCI-H1734 | 0.331 | 0.383 | 0.346 | 0.394 | 0.318 | 0.529 | 0.671 | 0.474 | 0.665 | 0.571 | 0.53 | 0.479 | 0.502 | 0.528 | 0.775 | 0.52 | 0.591 | 0.574 |

— the supplement of paper PMC10307832
